Source: US5962533A, “Hydroxy polyamines” (priority 1996, dated 1999)
Structures can show the parent of a compound that is named as a salt.

Assays:
L1210 cells = test: Polyamine pool analysis in analogue-treated L1210 cells (HPLC); type: cell-based, Murine; conditions: for PUT level relative to untreated controls / SPD level relative to untreated controls / SPM level relative to untreated controls: L1210 cells, control = 100%
Experimental: Polyamine Pool Analysis. While in logarithmic growth, cells were treated with the polyamine derivatives. […] Each supernatant was frozen at -20° C. until analysis by HPLC.

NMDA receptor = test: NMDA assay: specific [3H]MK-801 binding to washed rat cerebral cortical membranes; conditions: 100 μm L-glutamate, 100 μm glycine, 2 nm [3H]MK-801
Description: FIG. 4 depicts the effects of (HO)2 DEHSPM and DEHSPM on the NMDA receptor (MK-801 binding). Each data point represents the mean ±s.d. of three experiments. Each experiment was, in turn, performed in triplicate. "100% activity" is defined as the amount of specific MK-801 binding to washed rat cerebral cortical membranes in the presence of saturating concentrations of coagonists (100 μm L-glutamate, 100 μm glycine) and 2 nm [^3 H]MK-801.
NMDA Assay. The procedure for measuring specific binding of [^3 H]MK-801 to the N-methyl-D-aspartate receptor complex was a modification of the method of Ransom and Stec [J. Neurochem., Vol. 51, pages 830-836 (1988)]. Cerebral cortices from young male Sprague-Dawley rats (200-300 g) were homogenized with 10 volumes ice-cold 0.32M sucrose using a motor-driven glass/Teflon homogenizer. The homogenate was centrifuged at 1,000 g for 10 minutes and the pellet was discarded. The supernatant was then centrifuged at 18,000 g for 20 minutes. The 18,000 g pellet was then resuspended in 10 volumes buffer A (5 mm Tris-HCl, pH 7.7) at 4° C., homogenized using high-intensity ultrasound and centrifuged at 8,000 for 20 minutes. The supernatant and upper buffy coat of the pellet were combined and centrifuged at 50,000 g for 20 minutes. The pellet was then resuspended in 10 volumes buffer A and homogenized using high-intensity ultrasound. These resuspended membranes were then centrifuged at 50,000 g, discarding the supernatant. The membranes were washed in this manner an additional three times and stored as a frozen suspension at -80° C. for at least 18 hours, but no longer than 2 weeks before use.
For binding experiments, frozen membranes were thawed, pelleted at 50,000 g for 20 minutes and washed as described above, except that 20 volumes of buffer A were used for resuspension, for a total of four times. The final pellet was resuspended in buffer B (5 mm Tris-HCl, pH 7.5) at 23° C. The binding assay mixture was 1.00 ml buffer B containing 200-300 μg membrane protein, 100 μm L-glutamate, 100 μm glycine, 2 nm [^3 H]MK-801 and tetraamine at the following concentrations: 0 ("100%+L-glu,+gly-Control") and 0.05, 0.1, 0.5, 1, 5, 10, 50, 100, 500 and 1,000 μm. Non-specific binding was determined using 100 μm MK-801.
Binding assays were performed in triplicate at 23° C. for one hour and were terminated by filtration through Whatman GF/B glass fiber filters followed by three 4.0 ml rinses of ice-cold buffer B using a Brandel M-48 Cell Harvester.

[1] = Acute toxicity, single intraperitoneal injection; conditions: 325 mg/kg intraperitoneal, five female CD-1 mice
[2] = 3.5 μm analogue, listed as (OH)2 DEHSPM

CCNCC[C@@H](O)CNCCCCNC[C@H](O)CCNCC [(HO)2 DEHSPM, N^1,N^14 -Diethyl-3(R),12(R)-dihydroxyhomospermine tetrahydrochloride]
PUT level relative to untreated controls (L1210 cells; 0.7 μm analogue): 45%
SPD level relative to untreated controls (L1210 cells; 0.7 μm analogue): 57%
SPM level relative to untreated controls (L1210 cells; 0.7 μm analogue): 96%
PUT level relative to untreated controls (L1210 cells; 3.5 μm analogue): below detectable limits
SPD level relative to untreated controls (L1210 cells; 3.5 μm analogue): below detectable limits
SPM level relative to untreated controls (L1210 cells; 3.5 μm analogue): 60%
PUT level relative to untreated controls (L1210 cells; [2]): 0%
SPD level relative to untreated controls (L1210 cells; [2]): 0%
SPM level relative to untreated controls (L1210 cells; [2]): 68%
N-deethylation by L1210 cells (L1210 cells; in vitro conditions): do not N-deethylate
concentration showing agonist activity on MK-801 binding (NMDA receptor): 0.5-1.0 μm
concentrations of maximal antagonism of MK-801 binding (NMDA receptor): ≥ 50 μm
concentrations showing marked antagonist activity on MK-801 binding (NMDA receptor): above 5 μm
deaths after single dose [1]: Three of the five animals died
